# Data: patent publication US12653190B2, “Heteroaryl-triazole compounds as pesticides” (Bayer Aktiengesellschaft, priority 2020, dated 2026)
# Columns and labels:
# Assay type in all cases: in vivo
# [1] = system: green peach aphid (Myzus persicae); experiment: Myzus persicae oral test; conditions: 120 h, after 5 days
# Method: • Solvent: 100 parts by weight acetone
# To produce a suitable preparation of active compound, 1 part by weight of active compound is mixed with the stated amount of solvent, and the concentrate is diluted with water to the desired concentration.
# 50 μL compound solution is filled in microtiter plates and 150 μL IPL41 insect medium (33%+15% sugar) is added to obtain a total volume of 200 μL per well. Afterwards the plates are sealed with parafilm through which a mixed population of the green peach aphid (Myzus persicae) can suck on the compound preparation.
# (§1) After 5 days mortality in % is determined. 100% means all aphids have been killed and 0% means none of the aphids have been killed.
# [2] = system: larvae of the banded cucumber beetle (Diabrotica balteata); experiment: Diabrotica balteata spray test; conditions: 168 h, after 7 days, wheat seeds, read-out: efficacy (seedling growth); for pest or weed control at 32 µg/disc, 100 g/ha: 100 g/ha (=32 μg/well); for pest or weed control at 160 µg/disc, 500 g/ha: 500 g/ha (=160 μg/well)
# Procedure, shortened: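 Germinated wheat seeds on agar (5 per well) were sprayed with compound formulated in acetone/DMF and diluted in water with 1000 ppm emulsifier. Each unit was then infested with 10–20 larvae. Efficacy % was scored after 7 days as seedling growth relative to an untreated, uninfested control (100% = normal growth).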
# [3] = system: adult mosquitoes Aedes aegypti strain MONHEIM; experiment: Aedes aegypti test (AEDSAE surface treatment & contact assay); conditions: 24 hours after contact, read-out: efficacy (mortality); for mortality at 4 mg/m2: surface concentration 4 mg/m^2, 30 minutes exposure; for mortality at 20 mg/m2: surface concentration 20 mg/m^2, 30 minutes exposure
# Method: Aedes aegypti Test (AEDSAE Surface Treatment & Contact Assay)
# (§2) • Solvent: Aceton+2000 ppm rapeseed oil methyl ester (RME)
# (§3) In order to produce a sufficient, active ingredient containing solution it is necessary to solve the test compound in the solvent-mix (acetone at 2 mg/ml/RME 2000 ppm). This solution is pipetted onto a glazed tile and after evaporation of the acetone, adult mosquitoes of the species Aedes aegypti strain MONHEIM are placed onto the dried surface. The exposure time is 30 minutes.
# (§4) Mortality in percent (%) is determined 24 hours after contact of the insects to the treated surface. 100% mortality means that all tested insects are dead, whereas 0% means that no insect died.
# [4] = system: larvae of the southern green stink bug (Nezara viridula); experiment: Nezara viridula spray test; conditions: 96 h, after 4 days, barley plants
# Procedure, shortened: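 Compound in acetone/DMF was diluted in water with 1000 ppm alkylarylpolyglycol ether emulsifier. Barley plants were sprayed with it, then infested with Nezara viridula larvae. Mortality % was scored after 4 days (100% = all killed).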
# [5] = system: Rhipicephalus (Boophilus) microplus larvae (strain Parkhurst, resistant against synthetic pyrethroids); experiment: Rhipicephalus (Boophilus) microplus in-vitro contact test, larval cattle tick; conditions: 5 μg/cm^2 (=500 g/ha), after 48 hours, read-out: efficacy (larvae dead or moribund)
# Method: Rhipicephalus (Boophilus) microplus—In-Vitro Contact Tests Larval Cattle Tick (Strain Parkhurst, Resistant Against Synthetic Pyrethroids)
# (§5) 9 mg compound is solved in 1 mL acetone and diluted with acetone to the desired concentration. 250 μL of the test solution is filled in 25 mL glass test tubes and homogeneously distributed on the inner walls by rotation and tilting on a shaking device (2 h at 30 rpm). With a compound concentration of 900 ppm, an inner surface of 44.7 cm^2 and a homogeneous distribution, a dose of 5 μg/cm^2 is achieved.
# After the solvent has evaporated, each test tube is filled with 20-50 cattle tick larvae (Rhipicephalus microplus), closed with a perforated lid and incubated in a horizontal position at 85% relative humidity and 27° C. in an incubator. After 48 hours efficacy is determined. The larvae are patted on the ground of the tubes and negative geotactic behavior is recorded.
# An efficacy of 100% means all larvae are dead or moribund; 0% means no larvae are dead or moribund.
# [6] = system: fall armyworm larvae (Spodoptera frugiperda); experiment: Spodoptera frugiperda spray test; conditions: in Zea mays, 168 h
# Procedure, shortened: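 Maize leaf sections were sprayed with compound in acetone/dimethylformamide diluted in water with 1000 ppm emulsifier, dried, then infested with larvae. Mortality in % was scored after 7 days, 100% meaning all caterpillars killed.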
# [7] = system: green peach aphid (Myzus persicae); experiment: Myzus persicae spray test; conditions: foliar, 120 h, after 5 days, Chinese cabbage leaf disks
# Method: Myzus persicae—Spray Test
# • Solvent: 78.0 parts by weight acetone • 1.5 parts by weight dimethylformamide • Emulsifier: alkylarylpolyglycol ether
# To produce a suitable preparation of active compound, 1 part by weight of active compound is mixed with the stated amount of solvents and is diluted with water, containing an emulsifier concentration of 1000 ppm, to the desired concentration. Further test concentrations are prepared by dilution with emulsifier containing water.
# Chinese cabbage (Brassica pekinensis) leaf disks infected with all instars of the green peach aphid (Myzus persicae), are sprayed with a preparation of the active ingredient of the desired concentration.
# as §1
# [8] = system: adult mosquitoes Culex quinquefasciatus strain P00; experiment: Culex quinquefasciatus test (CULXFA surface treatment & contact assay); conditions: 24 hours after contact, read-out: efficacy (mortality); for mortality at 4 mg/m2: surface concentration 4 mg/m^2, 30 minutes exposure; for mortality at 20 mg/m2: surface concentration 20 mg/m^2, 30 minutes exposure
# Method: Culex quinquefasciatus Test (CULXFA Surface Treatment & Contact Assay)
# as §2
# as §3, with “2 000” for “2000”, “Culex Quinquefasciatus” for “Aedes aegypti”, “P00” for “MONHEIM”, “minutes. Mortality in percent (%) is determined 24 hours after contact of the insects to the treated surface. 100% mortality means that all tested insects are dead, whereas 0% means that no insect died.” for “minutes.”
# [9] = system: adult cat fleas (Ctenocephalides felis); experiment: Ctenocephalides felis in-vitro contact test, adult cat flea; conditions: 5 μg/cm^2 (=500 g/ha), after 48 hours, read-out: efficacy (fleas dead or moribund)
# Method: Ctenocephalides felis—In-Vitro Contact Tests Adult Cat Flea
# as §5
# (§6) After the solvent has evaporated, each test tube is filled with 5-10 adult cat fleas (Ctenocephalides felis), closed with a perforated lid and incubated in a lying position at room temperature and relative humidity. After 48 hours efficacy is determined. The fleas are patted on the ground of the tubes and are incubated on a heating plate at 45-50° C. for at most 5 minutes Immotile or uncoordinated moving fleas, which are not able to escape the heat by climbing upwards, are marked as dead or moribund.
# An efficacy of 100% means all fleas are dead or moribund; 0% means no fleas are dead or moribund.
# [10] = system: adult flies Musca domestica strain WHO-N; experiment: Musca domestica test (MUSCDO surface treatment & contact assay); conditions: 24 hours after contact, read-out: efficacy (mortality); for mortality at 4 mg/m2: surface concentration 4 mg/m^2, 30 minutes exposure; for mortality at 20 mg/m2: surface concentration 20 mg/m^2, 30 minutes exposure
# Method: Musca domestica Test (MUSCDO Surface Treatment & Contact Assay)
# as §2
# as §3, with “flies” for “mosquitoes”, “Musca domestica” for “Aedes aegypti”, “WHO-N” for “MONHEIM”
# as §4
# [11] = system: adult brown dog ticks (Rhipicephalus sanguineus); experiment: Rhipicephalus sanguineus in-vitro contact test, adult brown dog ticks; conditions: 5 μg/cm^2 (=500 g/ha), after 48 hours, read-out: efficacy (ticks dead or moribund)
# Method: Rhipicephalus sanguineus—In-Vitro Contact Tests with Adult Brown Dog Ticks
# as §5
# as §6, with “brown dog ticks (Rhipicephalus sanguineus),” for “cat fleas (Ctenocephalides felis),”, “ticks” for “fleas”, “ticks,” for “fleas,”
# An efficacy of 100% means all ticks are dead or moribund; 0% means no ticks are dead or moribund.
# [12] = system: southern root-knot nematode (Meloidogyne incognita); experiment: Meloidogyne incognita test; conditions: 20 ppm, after 14 days
# Method: Meloidogyne incognita—Test
# • Solvent: 125.0 parts by weight of acetone
# To produce a suitable preparation of active compound, 1 part by weight of active compound is mixed with the stated amount of solvent, and the concentrate is diluted with water to the desired concentration. Vessels are filled with sand, a solution of the active ingredient, a suspension containing eggs and larvae of the southern root-knot nematode (Meloidogyne incognita) and salad seeds. The salad seeds germinate and the seedlings grow. Galls develop in the roots.
# After 14 days the nematicidal activity is determined on the basis of the percentage of gall formation. 100% means no galls were found and 0% means the number of galls found on the roots of the treated plants was equal to that in untreated control plants.
Structure (SMILES),mortality at 4 ppm [1] [%],"pest or weed control at 32 µg/disc, 100 g/ha [2] [%]",mortality at 4 mg/m2 [3] [%],mortality at 20 mg/m2 [3] [%],mortality at 100 g/ha [4] [%],mortality at 500 g/ha [4] [%],mortality at 20 ppm ([1]; 20 ppm) [%],"pest or weed control at 5 µg/cm2, 5 µg/cm2 [5] [%]",mortality at 100 g/ha [6] [%],mortality at 500 g/ha [6] [%],"pest or weed control at 160 µg/disc, 500 g/ha [2] [%]",mortality at 100 g/ha [7] [%],mortality at 4 mg/m2 [8] [%],mortality at 20 mg/m2 [8] [%],"pest or weed control at 5 µg/cm2, 5 µg/cm2 [9] [%]",mortality at 4 mg/m2 [10] [%],mortality at 20 mg/m2 [10] [%],"pest or weed control at 5 µg/cm2, 5 µg/cm2 [11] [%]",nematicidal activity (gall formation) [12] [%]
C[C@H](NC(=O)c1cc(OCC2CC2(Cl)Cl)cc(C(F)(F)F)c1)c1ncnn1-c1ccc(C#N)cn1 (stereo partly shown) [Example I-29],90,100,–,–,–,–,–,–,–,–,–,–,–,–,–,–,–,–,–
"C[C@H](NC(=O)c1cc(OC[S+](C)[O-])cc(C(F)(F)F)c1)c1ncnn1-c1ccc(C#N)cn1 (stereo partly drawn) [Example I-27, N-{(1S)-1-[1-(5-Cyanopyridin-2-yl)-1H-1,2,4-triazol-5-yl]ethyl}-3-[(methylsulfinyl)methoxy]-5-(trifluoromethyl)benzamide]",100,100,80 to 100,80 to 100,100,100,100,100,100,100,100,90,–,–,–,–,–,–,–
C[C@H](NC(=O)c1cc(OCC(Cl)=C(Cl)Cl)cc(C(F)(F)F)c1)c1ncnn1-c1ncc([N+](=O)[O-])s1 [Example I-34],90,–,–,–,–,–,–,–,–,–,–,–,–,–,–,–,–,–,–
C[C@H](NC(=O)c1cc(C(F)(F)F)cc(C(C)(C)C#N)c1)c1ncnn1-c1ccc(C#N)cn1 [Example I-42],–,100,80 to 100,80 to 100,100,100,–,100,100,–,–,100,80 to 100,80 to 100,80,80 to 100,80 to 100,80,–
"C[C@H](NC(=O)c1cc(Cl)cc(C(C)(C)C#N)c1)c1ncnn1-c1ccc(C#N)cn1 [Example I-33, 3-Chloro-5-(2-cyanopropan-2-yl)-N-{(1S)-1-[1-(5-cyanopyridin-2-yl)-1H-1,2,4-triazol-5-yl]ethyl}benzamide]",100,100,80 to 100,80 to 100,–,–,–,100,100,–,–,–,–,80 to 100,80,80 to 100,80 to 100,100,–
COc1nc([C@H](C)NC(=O)c2cc(Cl)cc(C(C)(C)C#N)c2)n(-c2ccc(C#N)cn2)n1 [Example I-39],–,100,–,–,–,–,–,–,100,–,–,–,–,–,–,–,–,–,100
C[C@H](NC(=O)c1cc(Cl)cc(C(=O)C2CC2)c1)c1ncnn1-c1ccc(C#N)cn1 [Example I-35],100,100,80 to 100,80 to 100,100,–,–,100,100,–,–,–,–,80 to 100,100,80 to 100,80 to 100,80,–
C[C@H](NC(=O)c1cc(Cl)cc(OC(C)(C)C#N)c1)c1ncnn1-c1ncc(C#N)s1 [Example I-61],–,100,–,–,–,–,–,–,100,–,–,–,–,–,–,–,–,–,90
C[C@H](NC(=O)c1cc(OCC(Cl)=C(Cl)Cl)cc(C(F)(F)F)c1)c1ncnn1-c1ccc(C#N)cn1 [Example I-24],–,100,–,–,–,–,–,–,100,100,100,–,–,–,–,–,–,–,90
"C[C@H](NC(=O)c1cc(C(F)(F)F)cc(C(C)(C)C#N)c1)c1ncnn1-c1ncc(C#N)s1 [Example I-44, 3-(1-Cyano-1-methyl-ethyl)-N-[(1S)-1-[2-(5-cyanothiazol-2-yl)-1,2,4-triazol-3-yl]ethyl]-5-(trifluoromethyl)benzamide]",–,–,80 to 100,80 to 100,100,100,–,100,100,–,–,100,80 to 100,80 to 100,100,80 to 100,80 to 100,80,–
C[C@H](NC(=O)c1cc(OCC2CC2(Cl)Cl)cc(C(F)(F)F)c1)c1ncnn1-c1ncc(C#N)s1 (stereo partly shown) [Example I-30],90,100,–,–,–,–,–,–,–,–,–,–,–,–,80,–,–,–,–
